In patent publication US20230133243A1, “CONDITIONING REGIMENS FOR IN VIVO GENE THERAPY” (Fred Hutchinson Cancer Center, priority 2020, published 2023):

What was measured:
[1] = Tolerability, physical health, hematology and blood chemistry in the NHP in vivo HSC gene therapy study; design: species or system rhesus macaques; details: NHP #2, given through a gastric catheter over 5 days; day 3 after HDAd injection
Description: NHP #1 received a donor vector containing two payload modules: i) a transposon module for random integration into host cell genomes of a human γ-globin gene operably linked with a mini-β-globin LCR, together with an MGMT^P140K selection marker operably linked with an EF1α promoter, and ii) a CRISPR/Cas9 module for CRISPR/Cas9-mediated reactivation of endogenous rhesus γ-globin expression (FIG. 8B). This combination donor vector was co-injected with a support vector that expresses an activity-enhanced Sleeping Beauty transposase (SB100x) (HDAd-SB), activity of which mediates γ-globin gene addition by integration of the transposon into host cell genomes and triggers the destruction of the CRISPR/Cas9 module thus restricting the duration of the CRISPR/Cas9 system's expression and activity (FIG. 8B). […] The vector injected into NHP #3 was similar to the NHP #1 vector but encoded rhesus γ-globin instead of human γ-globin to minimize immune responses against transgene products in the NHP (FIG. 8D).
None of the three animals had detectable anti-vector antibodies at the time of enrollment. Unexpectedly, NHP #1 acquired antibodies during quarantine (titer 1:680). NHP #1 and #3 were monitored for 6 months. […] Despite this, a set of relevant data could be collected from this animal. […]

[2] = test system: human MGMT^P140K; assay: Anti-human MGMT^P140K immune responses under adaptive immunosuppression; assay type: in vivo, rhesus macaques; details: fully immunocompetent animals
Description: Serum antibody (IgG and IgM) titers against recombinant human MGMT protein in NHP #3 (FIG. 18A) and NHP #1 (FIG. 18B).
To suppress adaptive immune responses, NHP #1 received daily tacrolimus/sirolimus/MMF. […] For NHP #3, it was therefore decided to administer only tacrolimus (SC) as this had been sufficient in myelo-ablated/-conditioned rhesus macaques.

[3] = test system: IL-6; assay: Rhesus serum cytokine levels by cytometric bead array after IV HDAd5/35++ (IL-6); assay type: in vivo, rhesus macaques; details: NHPs; measured by IL-6 and/or TNF levels
Description: FIGS. 12A-12E. […] (FIGS. 12A-12C) Serum IL-6. (FIGS. 12D, 12E) Serum TNFα.
FIG. 29. […] Serum IL-6 (pg/mL) levels are shown for NHP #4. […] Arrows indicate administration of adenoviral vector.
FIG. 31. […] Serum IL-6 (pg/mL) levels are shown for NHP #5. […] Arrows indicate administration of adenoviral vector.
Serum cytokines returned back to baseline by 24 hrs.

**Q.** For `C=CC[C@@H]1/C=C(\C)C[C@H](C)C[C@H](OC)[C@H]2O[C@@](O)(C(=O)C(=O)N3CCCC[C@H]3C(=O)O[C@H](/C(C)=C/[C@@H]3CC[C@@H](O)[C@H](OC)C3)[C@H](C)[C@@H](O)CC1=O)[C@H](C)C[C@@H]2OC` [tacrolimus], which outcome of overdose [1] is on record?
**A.** Its outcome of overdose is “had to be euthanized”.

**Q.** What about the “control of anti-human MGMT^P140K antibodies (and T-cell responses)” value [2] of the same molecule?
**A.** Its value is “did not prevent”.

**Q.** With “anakinra: engineered human IL-1 receptor antagonist (IL-1Ra), recombinant non-glycosylated protein, SEQ ID NO: 1” as the molecule, how does the “innate immune response to HDAd5/35++” value [3] read?
**A.** Its value is “potent agent for suppressing in vivo immune responses”.
